According to patent US20120184438A1, “FORMULATIONS” (SYNGENTA CROP PROTECTION, LLC, priority 2009, published 2012):
Read-outs that look alike come from different tables or passages of the source. Each block holds one molecule with its values, some of them ahead of it.

Experiments:
Format in all cases: physicochemical
[1] = Aqueous solubility of solvents
Text: (§1) This Example illustrates that Compound Number 1 is unusually effective at dissolving pesticides given that it has a water solubility which is low.

[2] = Solubility of agrochemical active ingredients in Compound No. 1 (equilibrated 4 weeks at 25° C., supernatant analysed by GC/LC); settings: solvent Compound No. 1 (DEET), 4 weeks equilibration
Method: The resultant sample was mixed with a Whirlimixer™ and was then stored at 25° C. The sample was checked every few days; if there was no solid active ingredient present then additional active ingredient was added; if there was no liquid remaining then additional solvent was added. This procedure was repeated until the sample had equilibrated for 4 weeks following the final addition of either active ingredient or solvent.

[3] = Pesticide (A.I.) solubility in several solvents at 25° C.
Method: A glass vial was approximately one eighth filled with an active ingredient [Al] and then solvent [in this example, Compound Number 1 from Table 1] was added until the vial was approximately one third full. The resultant sample was mixed with a Whirlimixer™ and was then stored at 25° C. The sample was checked every few days; if there was no solid active ingredient present then additional active ingredient was added; if there was no liquid remaining then additional solvent was added. This procedure was repeated until the sample had equilibrated for 4 weeks following the final addition of either active ingredient or solvent. The supernatent liquid layer was then analysed by gas chromatography [except for 4-hydroxy-3-[2-(2-methoxyethoxymethyl)-6-trifluoromethylpyridine-3-carbonyl]-bicyclo[3.2.1]oct-3-en-2-one which was analysed by liquid chromatography] for active ingredient concentration; the results are given in Table 2:
as §1

[4] = solubility of the solvent in water

Molecule: CC(=O)O[C@@H]1C[C@H]2CC[C@]1(C)C2(C)C (racemic) [Isobornyl acetate]
Aqueous solubility [1, 4]: 0.003 % w/w

Molecule: COCCOCc1nc(C(F)(F)F)ccc1C(=O)C1=C(O)C2CCC(C2)C1=O (stereo not drawn) [4-Hydroxy-3-[2-(2-methoxyethoxymethyl)-6-trifluoromethylpyridine-3-carbonyl]-bicyclo[3.2.1]oct-3-en-2-one]
Solubility in Compound No. 1 at 25° C. [2]: 24.7 % w/w

Molecule: CO/C=C(/C(=O)OC)c1ccccc1Oc1cc(Oc2ccccc2C#N)ncn1 [Azoxystrobin]
Solubility in Compound No. 1 at 25° C. [2]: 11.3 % w/w

Molecule: CCN(CC)C(=O)c1cccc(C)c1 [Compound No. 1]
Aqueous solubility [1, 4]: 0.1 % w/w

Molecule: CC(C1CC1)C(O)(Cn1cncn1)c1ccc(Cl)cc1 (stereo not drawn) [Cyproconazole]
Solubility in Compound No. 1 at 25° C. [2]: 33.4 % w/w

Molecule: CN1CCCC1=O [N-Methyl pyrrolidone]
Aqueous solubility [1, 4]: 100 % w/w

Molecule: OCC1CCCO1 (stereo not drawn) [Tetrahydrofurfuryl alcohol]
Aqueous solubility [1, 4]: 100 % w/w

Continued, in another order:

Aqueous solubility [1, 4]: 100 % w/w
Molecule: C[S+](C)[O-] [DMSO]
A.I. Solubility at 25° C., Azoxystrobin [3]: 32.1 % w/w
A.I. Solubility at 25° C., Cyproconazole [3]: 55.5 % w/w

Aqueous solubility [1, 4]: 0.030 % w/w
Molecule: CC(C)[C@@H]1CC[C@@H](C)CC1=O [Menthone]

Aqueous solubility [1, 4]: 0.1 % w/w
Molecule: CCCCOC(=O)c1ccccc1 [n-Butylbenzoate]

Aqueous solubility [1]: 0.1 % w/w
Molecule: Trimethylbenzene
A.I. Solubility at 25° C., Azoxystrobin [3]: 1.7 % w/w
A.I. Solubility at 25° C., Cyproconazole [3]: 5.8 % w/w
